From patent EP4621409A1, “NOVEL ANTIVIRAL PEPTIDE” (Daehannupharm Co., Ltd., priority 2022, dated 2024)
pIC50: −log10 of the molar value. Read-outs that look alike come from different tables or passages of the source. No end group written: not given here.

Tests used:
dengue virus = conditions: for pIC50: dengue virus incubated with peptide 37°C 1 hour, Vero cells, 2 days, triplicate
Procedure: The inoculated cells were cultured overnight.
The SP-049 peptide was prepared such that the maximum concentration was 125 nM and the minimum concentration was 0.98 nM (concentrations: 125 nM; 62.5 nM; 31.25 nM; 15.62 nM; 7.81 nM; 3.91 nM; 1.95 nM; and 0.98 nM).
The present inventors calculated the inhibition rate (% inhibition) of each well based on the formula of the standard curve by converting the average Ct value of wells infected with dengue virus without peptide treatment in the same plate into an infection rate of 100%, and using this to create a standard curve. Each value was obtained through three repeated experiments (in triplicate), and IC50 values were derived using GraphPad Prism 5 software.

HCV = conditions: Table 1 in Cheng, Guofeng, et al.; cited from earlier work

Row | Sequence | % Inhibition (dengue virus; Conc. 7.81 nM) | % Inhibition (dengue virus; Conc. 15.63 nM) | % Inhibition (dengue virus; Conc. 31.25 nM) | % Inhibition (dengue virus; Conc. 62.50 nM) | % Inhibition (dengue virus; Conc. 125.00 nM) | pIC50 (dengue virus) | pIC50 (SARS-CoV-2 virus) | other results
1 | DFWSKLVYFFAEIIRFLS [SP-143, DFWSKLVYFFAEIIRFLS] | 49.26% | 53.07% | 79.28% | 94.07% | 99.42% | 7.79 | 4.71 | % Inhibition (dengue virus; Conc. 0.98 nM): 59.95%; % Inhibition (dengue virus; Conc. 1.95 nM): -28.80%; % Inhibition (dengue virus; Conc. 3.91 nM): 42.98%
2 | DKIVLFILSILEKIYNLL [SP-171, DKIVLFILSILEKIYNLL] |  |  |  |  |  |  | 4.73 | 
3 | DVTRLLELILDVLAYIIS [SP-151, DVTRLLELILDVLAYIIS] |  |  |  |  |  |  | 5.30 | 
4 | DWLRIIWDWVCSVVSDFK [SEQ ID NO: 301] |  |  |  |  |  |  |  | antiviral activity compared among C5A analogs derived from HCV 1a, 1b, 2a, 3a, 4a, 5a and 6a (HCV): higher antiviral activity
5 | ESLKNFWESLWKFFTHFF [SP-001, ESLKNFWESLWKFFTHFF] | -0.47% | 45.60% | 57.96% | 78.78% | 82.51% | 7.65 |  | % Inhibition (dengue virus; Conc. 250.00 nM): 100.00%; % Inhibition (dengue virus; Conc. 500.00 nM): 100.00%; % Inhibition (dengue virus; Conc. 1000.00 nM): 100.00%
6 | FSFWVWLDNIIDLVKKYI [SP-114, FSFWVWLDNIIDLVKKYI] |  |  |  |  |  |  | 4.71 | 
7 | FTFWTWLEAILDLIKKHI [SP-116, FTFWTWLEAILDLIKKHI] |  |  |  |  |  |  | 5.39 | 
8 | FTNFHRQLFCWIDKWIDL [SP-191, FTNFHRQLFCWIDKWIDL] |  |  |  |  |  | 6.11 |  | % Inhibition (dengue virus; Conc. 39.06 nM): -20.14%; % Inhibition (dengue virus; Conc. 78.13 nM): -14.44%; % Inhibition (dengue virus; Conc. 156.25 nM): 5.32%; % Inhibition (dengue virus; Conc. 312.50 nM): 46.78%; % Inhibition (dengue virus; Conc. 625.00 nM): 29.53%; % Inhibition (dengue virus; Conc. 1250.00 nM): 64.10%; % Inhibition (dengue virus; Conc. 2500.00 nM): 98.50%; % Inhibition (dengue virus; Conc. 5000.00 nM): 99.99%
9 | ILDFFVGFIDWLVRYLNK [SP-046, ILDFFVGFIDWLVRYLNK] | 15.33% |  | 100.00% | 100.00% | 100.00% | 7.75 | 5.10 | % Inhibition (dengue virus; Conc. 0.98 nM): 3.30%; % Inhibition (dengue virus; Conc. 1.95 nM): 3.30%; % Inhibition (dengue virus; Conc. 3.91 nM): 5.60%; % Inhibition (dengue virus; Conc. 15.62 nM): 36.10%
10 | ILVRWLSHFFEYLDRFYT [SP-221, ILVRWLSHFFEYLDRFYT] |  |  |  |  |  |  | 4.71 | 
11 | QSFLDIVWSIIDIFKEFC [SP-004, QSFLDIVWSIIDIFKEFC] | -1.96% | 6.56% | 9.23% | 22.45% | 34.78% | 6.68 | 5.05 | % Inhibition (dengue virus; Conc. 250.00 nM): 61.21%; % Inhibition (dengue virus; Conc. 500.00 nM): 99.95%; % Inhibition (dengue virus; Conc. 1000.00 nM): 100.00%
12 | SFLDIVWSIIDIFKEFCK [SP-003, SFLDIVWSIIDIFKEFCK] | -6.03% | 38.56% | 71.23% | 63.98% | 99.91% | 7.66 | 4.99 | % Inhibition (dengue virus; Conc. 250.00 nM): 100.00%; % Inhibition (dengue virus; Conc. 500.00 nM): 100.00%; % Inhibition (dengue virus; Conc. 1000.00 nM): 100.00%
13 | SWKEIVNLLYELLASLIR [SP-101, SWKEIVNLLYELLASLIR] | -14.11% | 20.94% | 0.96% | 23.20% | 65.09% | 7.00 | 4.94 | % Inhibition (dengue virus; Conc. 250.00 nM): 97.07%; % Inhibition (dengue virus; Conc. 500.00 nM): 100.00%; % Inhibition (dengue virus; Conc. 1000.00 nM): 100.00%
14 | WDCVQDIWEYIFRTAMKI [SP-185, WDCVQDIWEYIFRTAMKI] |  |  |  |  |  | 6.28 |  | % Inhibition (dengue virus; Conc. 39.06 nM): -7.43%; % Inhibition (dengue virus; Conc. 78.13 nM): 11.76%; % Inhibition (dengue virus; Conc. 156.25 nM): 36.60%; % Inhibition (dengue virus; Conc. 312.50 nM): 33.04%; % Inhibition (dengue virus; Conc. 625.00 nM): 51.77%; % Inhibition (dengue virus; Conc. 1250.00 nM): 89.53%; % Inhibition (dengue virus; Conc. 2500.00 nM): 100.00%; % Inhibition (dengue virus; Conc. 5000.00 nM): 100.00%
15 | WSEILREFLNLISLIWSR [SP-110, WSEILREFLNLISLIWSR] |  |  |  |  |  |  | 4.71 | 
16 | YNLFDLLIYIWNKIFDDY [SP-049, YNLFDLLIYIWNKIFDDY] | 93.03% | 100.00% | 100.00% | 100.00% |  | 8.41 | 5.74 | % Inhibition (dengue virus; Conc. 0.49 nM): 24.20%; % Inhibition (dengue virus; Conc. 0.98 nM): 20.16%; % Inhibition (dengue virus; Conc. 1.95 nM): 39.14%; % Inhibition (dengue virus; Conc. 3.91 nM): 45.30%
